# According to patent US20230136562A1, “SPIROUREA DERIVATIVES” (Idorsia Pharmaceuticals Ltd, priority 2020, published 2023):
# Like-named read-outs stand apart in the source and are kept apart here.
# Test system: primary neuronal cultures from embryonic rat brains
# Experiment: Rat oscillation assay (FLIPR, neuronal calcium oscillations)
# Format: cell-based
# Procedure: A) Rat Oscillation Assay:
# This assay is a functional phenotypic assay designed to mimic epileptic seizures using primary neuronal cultures from embryonic rat brains, which form a functional neuronal network that generate synchronized intracellular calcium concentration oscillations when cultured at high density in 384-well plate. The epileptic phenotype is induced by incubating the neurons in magnesium-free assay buffer, that results in increased probability of NMDA receptor activation, leading to an increased frequency and amplitude of intracellular calcium oscillations. Once neurons are incubated with the calcium indicator dye Fluo-8 AM (Tebu-bio), neuronal calcium oscillations can be monitored in real time using FLIPR® Tetra (fluorometric plate reader, Molecular Devices). With these recordings, the effect of anti-epileptic drugs can be quantified. The anti-epileptic effect of compounds, which activate directly or indirectly the Kv7 channels can be modulated by the Kv7 channel blocker XE-991. The assay was performed as described previously (Pacico N, Mingorance-Le Meur A. New In Vitro Phenotypic Assay for Epilepsy: Fluorescent Measurement of Synchronized Neuronal Calcium Oscillations. PLoS ONE 9(1) 2014) with modifications described hereafter.
# Animal care followed standard procedures in accordance with swiss institutional guidelines. Dissociated neuronal cultures were obtained from cerebral cortices of embryonic Wistar rats at embryonic stage E18 (Charles River). The uterine horns were removed by caesarian surgery from deeply anesthetized rats (Isofurane) and sacrificed by decapitation. The embryos were decapitated by closing forceps. The brains were isolated and dissected one by one in ice-cold PBS (Life Technologies) under optical control using a binocular. Meninges, olfactory bulbs, and basal ganglia were removed. Cortical hemispheres (still including the hippocampus) were cut in small pieces with tweezers and placed on ice in pre-chilled Hibernate-E medium (Life technology). The hemispheres were then incubated in 10 mL of Hibernate-E containing 15 U/mL papain (Worthington) for 25 min at 30° C. with gentle mixing every 10 min. Genomic DNA was then digested by prolonging the incubation during 10 min at 37° C. in presence of 4 U/mL rDNase I (Ambion). The obtained suspension was then centrifuged at 800 g for 5 min and the cell pellet was resuspended in 2 mL Hibernate-E and gently dissociated by pipetting up and down 10 times with a plastic Pasteur pipette resulting in a homogenous cell suspension. This suspension was immediately filtered through a 70 µm cell strainer (MACS® SmartStrainer, Miltenyi), collected in 10 mL Hibernate-E and centrifuged at 800 g for 5 min. The cell pellet was resuspended in Neurobasal medium, supplemented with 2% B-27, 0.5 mM Glutamax-I, 100 U/mL penicillin, 100 µg/mL streptomycin (Life Technologies) and diluted at the final concentration of 300′000 cells/mL. One day before plating the cells, 384-well plates were coated with 25 μL/well of 0.1% poly-L-lysine solution (Sigma), incubated overnight at 37° C., washed two times with sterile distilled water and allowed to dry at room temperature for >2 h. The neurons were seeded at a density of 15′000 cells/well in 50 μL/well in a 384-well black, clear-bottomed plates (Corning) and subsequently maintained in an incubator at 37° C., 5% CO2 and 95% humidity for 8 to 10 days. After 3 and 7 days, 40% of media was renewed under sterile conditions.
# Protocol Rat Oscillation Assay
# Neurons seeded in the assay plates were washed with Hank's balanced salt solution (HBSS) devoid of Ca^2+ and Mg^2+, supplemented with 20 mM HEPES (Life Technologies) and 2 mM CaCl2 (Sigma), pH 7.4 (hereafter called Assay buffer) using a Biotek EL406 plate washer. Neurons were loaded with 1 μM Fluo-8 AM in Assay buffer for 15 min at 37° C., 5% CO2. […]
# [1] = AUC of fluorescence measured 20 min after compound addition, read-out: FLIPR: IC50 [nM] 20 min
# [2] = Acute phase, ratio of AUC fluorescence before and after compound addition, read-out: FLIPR: IC50 [nM] acute
# [3] = Rattus norvegicus, 20 min, AUC of fluorescence measured 20 min after compound addition, read-out: FLIPR: IC50 [nM] 20 min
# [4] = Rattus norvegicus, Acute phase, ratio of AUC fluorescence before and after compound addition, read-out: FLIPR: IC50 [nM] acute
Structure (SMILES),IC50 [1],IC50 [2],IC50 [3],IC50 [4]
"CC(Oc1nccc(CNC(=O)NC2CC3(CCC3)C2)n1)C(F)(F)F (single isomer, unassigned) [Example 181, 1-Spiro[3.3]hept-2-yl-3-[2-(2,2,2-trifluoro-1-methyl-ethoxy)-pyrimidin-4-ylmethyl]-urea]",564 nM,404 nM,–,–
"COc1c(CNC(=O)NC2CC3(CC3)C2)cccc1C(F)(F)F [Example 128, 1-(2-Methoxy-3-trifluoromethyl-benzyl)-3-spiro[2.3]hex-5-yl-urea]",–,–,950 nM,981 nM
"Cc1nc(OCC(F)(F)F)cc(C(C)NC(=O)NC2CC3(CCC3)C2)n1 (racemic) [Example 68, (±)-1-{1-[2-Methyl-6-(2,2,2-trifluoro-ethoxy)-pyrimidin-4-yl]-ethyl}-3-spiro[3.3]hept-2-yl-urea]",–,–,18 nM,18 nM
"Cc1ccc(CNC(=O)NC2CC3(CCC3)C2)cc1OCC(F)(F)F [Example 109, 1-[4-Methyl-3-(2,2,2-trifluoro-ethoxy)-benzyl]-3-spiro[3.3]hept-2-yl-urea]",–,–,262 nM,200 nM
"COCC(NC(=O)NC1CC2(CC2)C1)c1cccc(C(F)(F)F)c1 (racemic) [Example 147, (±)-1-[2-Methoxy-1-(3-trifluoromethyl-phenyl)-ethyl]-3-spiro[2.3]hex-5-yl-urea]",–,–,23 nM,18 nM
"COCC(NC(=O)NC1CC2(CCC2)C1)c1ccnc(OC(F)F)c1 (racemic) [Example 10, (±)-1-[1-(2-Difluoromethoxy-pyridin-4-yl)-2-methoxy-ethyl]-3-spiro[3.3]hept-2-yl-urea]",–,–,6 nM,6.2 nM
"N#CC(NC(=O)NC1CC2(CCC2)C1)c1cccc(C(F)(F)F)c1 (centres unmarked) [Example 55, 1-[Cyano-(3-trifluoromethyl-phenyl)-methyl]-3-spiro[3.3]hept-2-yl-urea]",–,–,48 nM,67 nM
"N#CC(NC(=O)NC1CC2(CCC2)C1)c1cccc(C(F)(F)F)c1 (racemic) [Example 89, 1-[(±)-Cyano-(3-trifluoromethyl-phenyl)-methyl]-3-spiro[3.3]hept-2-yl-urea]",–,–,74 nM,75 nM
"CN(CC(F)(F)F)c1cc(CNC(=O)NC2CC3(CCC3)C2)ccn1 [Example 115, 1-{2-[Methyl-(2,2,2-trifluoro-ethyl)-amino]-pyridin-4-ylmethyl}-3-spiro[3.3]hept-2-yl-urea]",–,–,241 nM,185 nM
"Cc1ccc(CNC(=O)NC2CC3(CCC3)C2)nc1OCC(F)(F)F [Example 108, 1-[5-Methyl-6-(2,2,2-trifluoro-ethoxy)-pyridin-2-ylmethyl]-3-spiro[3.3]hept-2-yl-urea]",–,–,279 nM,205 nM
"CC(Oc1cccc(C2(NC(=O)NC3CC4(CCC4)C3)CC2)c1)C(F)(F)F (racemic) [Example 111, (±)-1-Spiro[3.3]hept-2-yl-3-{1-[3-(2,2,2-trifluoro-1-methyl-ethoxy)-phenyl]-cyclopropyl}-urea]",–,–,34 nM,26 nM
"CC(NC(=O)NC1CC2(C1)CC(F)(F)C2)c1cccc(C(F)(F)F)c1 (racemic) [Example 161, (±)-1-(6,6-Difluoro-spiro[3.3]hept-2-yl)-3-[1-(3-trifluoromethyl-phenyl)-ethyl]-urea]",–,–,97 nM,78 nM
"O=C(NC1CC2(CCC2)C1)NC(c1cccc(C(F)(F)F)c1)C1CC1 (racemic) [Example 24, (±)-1-[Cyclopropyl-(3-trifluoromethyl-phenyl)-methyl]-3-spiro[3.3]hept-2-yl-urea]",–,–,8.6 nM,14 nM
"O=C(NCc1cccc(C(F)(F)F)c1)NC1CC2(C1)CC2(F)F (single isomer, unassigned) [Example 5, 1-(1,1-Difluoro-spiro[2.3]hex-5-yl)-3-(3-trifluoromethyl-benzyl)-urea]",–,82 nM,156 nM,–
"COc1ccc(C(F)(F)F)cc1C(C)NC(=O)NC1CC2(CC2)C1 (racemic) [Example 137, (±)-1-[1-(2-Methoxy-5-trifluoromethyl-phenyl)-ethyl]-3-spiro[2.3]hex-5-yl-urea]",–,–,1020 nM,1240 nM
"CC(NC(=O)NC1CC2(CC2)C1)c1ccnc(OC(F)F)c1 (racemic) [Example 139, (±)-1-[1-(2-Difluoromethoxy-pyridin-4-yl)-ethyl]-3-spiro[2.3]hex-5-yl-urea]",–,–,365 nM,186 nM
"O=C(NC1CC2(CCC2)C1)N[C@H](c1cccc(C(F)(F)F)c1)C(F)(F)F (single isomer, unassigned) [Example 178]",–,–,11 nM,16 nM
"O=C(NC1CC2(CCC2)C1)N[C@H](c1cccc(C(F)(F)F)c1)c1nc[nH]n1 (single isomer, unassigned) [Example 179]",–,–,13 nM,24 nM
"O=C(NCc1cccc(C(F)F)c1)NC1CC2(CC2)C1 [Example 158, 1-(3-Difluoromethyl-benzyl)-3-spiro[2.3]hex-5-yl-urea]",–,–,414 nM,390 nM
"CC(NC(=O)NC1CC2(CC2)C1)c1cc(F)cc(OCC(F)(F)F)c1 (racemic) [Example 132, (±)-1-{1-[3-Fluoro-5-(2,2,2-trifluoro-ethoxy)-phenyl]-ethyl}-3-spiro[2.3]hex-5-yl-urea]",–,–,110 nM,79 nM
"CC(Oc1nccc(CNC(=O)NC2CC3(CCC3)C2)n1)C(F)(F)F (single isomer, unassigned) [Example 180, 1-Spiro[3.3]hept-2-yl-3-[2-(-2,2,2-trifluoro-1-methyl-ethoxy)-pyrimidin-4-ylmethyl]-urea]",78 nM,62 nM,–,–
"C[C@@H](NC(=O)NC1CC2(CCC2)C1)c1ccnc(OC(F)F)c1 (single isomer, unassigned) [Example 167]",–,–,1750 nM,1280 nM
"COCC(NC(=O)NC1CC2(CC2)C1)c1ccnc(OCC(F)(F)F)c1 (racemic) [Example 154, (±)-1-{2-Methoxy-1-[2-(2,2,2-trifluoro-ethoxy)-pyridin-4-yl]-ethyl}-3-spiro[2.3]hex-5-yl-urea]",–,–,24 nM,8.1 nM
"CC(NC(=O)NC1CC2(CCC2)C1)c1cc(Cl)cc(OCC(F)(F)F)c1 (racemic) [Example 33, (±)-1-{1-[3-Chloro-5-(2,2,2-trifluoro-ethoxy)-phenyl]-ethyl}-3-spiro[3.3]hept-2-yl-urea]",–,–,65 nM,80 nM
"O=C(NC1CC2(CC2)C1)NC(CO)c1cccc(C(F)(F)F)c1 (racemic) [Example 143, (±)-1-[2-Hydroxy-1-(3-trifluoromethyl-phenyl)-ethyl]-3-spiro[2.3]hex-5-yl-urea]",–,–,61 nM,42 nM
"CC(NC(=O)NC1CC2(CCC2)C1)c1cccc(OCC(F)(F)F)c1F (racemic) [Example 98, (±)-1-{1-[2-Fluoro-3-(2,2,2-trifluoro-ethoxy)-phenyl]-ethyl}-3-spiro[3.3]hept-2-yl-urea]",–,–,14 nM,11 nM
"COc1ccc(C(C)NC(=O)NC2CC3(CCC3)C2)cc1OCC(F)(F)F (racemic) [Example 28, (±)-1-{1-[4-Methoxy-3-(2,2,2-trifluoro-ethoxy)-phenyl]-ethyl}-3-spiro[3.3]hept-2-yl-urea]",–,–,600 nM,629 nM
"O=C(NCc1cccc(OC(F)F)c1)NC1CC2(CCC2)C1 [Example 13, 1-(3-Difluoromethoxy-benzyl)-3-spiro[3.3]hept-2-yl-urea]",–,–,133 nM,88 nM
